COC(=O)C(C)(C)N=NC(C)(C)C(=O)OC
Conditions | solubility (mole fraction)
in THF, 253.85 K | 0.13
in THF, 258.55 K | 0.156
in THF, 260.95 K | 0.175
in THF, 262.85 K | 0.194
in THF, 265.15 K | 0.224
in THF, 268.85 K | 0.263
in THF, 273.65 K | 0.326
in THF, 275.95 K | 0.364
in THF, 278.45 K | 0.404
in THF, 280.65 K | 0.443
in THF, 283.15 K | 0.497
in THF, 285.65 K | 0.561
in THF, 288.05 K | 0.614
in THF, 290.55 K | 0.674
in THF, 293.15 K | 0.75
in acetone, 252.75 K | 0.0841
in acetone, 254.45 K | 0.0922
in acetone, 257.95 K | 0.112
in acetone, 261.25 K | 0.136
in acetone, 264.95 K | 0.171
in acetone, 267.65 K | 0.201
in acetone, 273.55 K | 0.276
in acetone, 275.85 K | 0.308
in acetone, 278.25 K | 0.352
in acetone, 280.55 K | 0.395
in acetone, 283.05 K | 0.454
in acetone, 285.65 K | 0.524
in acetone, 287.95 K | 0.591
in acetone, 290.45 K | 0.657
in acetone, 293.15 K | 0.734
in acetonitrile, 251.75 K | 0.0545
in acetonitrile, 255.15 K | 0.0705
in acetonitrile, 258.65 K | 0.091
in acetonitrile, 262.45 K | 0.113
in acetonitrile, 265.15 K | 0.137
in acetonitrile, 269.15 K | 0.18
in acetonitrile, 273.55 K | 0.238
in acetonitrile, 275.75 K | 0.278
in acetonitrile, 278.15 K | 0.323
in acetonitrile, 280.65 K | 0.369
in acetonitrile, 283.25 K | 0.432
in acetonitrile, 285.55 K | 0.494
in acetonitrile, 287.95 K | 0.557
in acetonitrile, 290.85 K | 0.638
in acetonitrile, 293.15 K | 0.702
in cyclohexane, 281.15 K | 0.147
in cyclohexane, 283.55 K | 0.233
in cyclohexane, 286.05 K | 0.362
in cyclohexane, 288.45 K | 0.471
in cyclohexane, 291.05 K | 0.601
in cyclohexane, 293.15 K | 0.677
in dichloromethane, 252.95 K | 0.268
in dichloromethane, 257.05 K | 0.281
in dichloromethane, 260.55 K | 0.296
in dichloromethane, 264.45 K | 0.321
in dichloromethane, 268.05 K | 0.352
in dichloromethane, 271.05 K | 0.385
in dichloromethane, 274.95 K | 0.413
in dichloromethane, 276.65 K | 0.451
in dichloromethane, 278.85 K | 0.493
in dichloromethane, 281.15 K | 0.513
in dichloromethane, 283.55 K | 0.552
in dichloromethane, 286.15 K | 0.592
in dichloromethane, 288.45 K | 0.627
in dichloromethane, 291.05 K | 0.67
in dichloromethane, 293.15 K | 0.73
in diethyl ether, 254.25 K | 0.0921
in diethyl ether, 257.95 K | 0.104
in diethyl ether, 260.55 K | 0.119
in diethyl ether, 262.45 K | 0.136
in diethyl ether, 266.75 K | 0.177
in diethyl ether, 268.15 K | 0.19
in diethyl ether, 273.55 K | 0.268
in diethyl ether, 275.65 K | 0.298
in diethyl ether, 278.05 K | 0.361
in diethyl ether, 280.55 K | 0.4
in diethyl ether, 282.85 K | 0.46
in diethyl ether, 285.55 K | 0.543
in diethyl ether, 287.95 K | 0.599
in diethyl ether, 290.45 K | 0.667
in diethyl ether, 293.15 K | 0.743
in ethanol, 252.85 K | 0.0094
in ethanol, 256.15 K | 0.011
in ethanol, 258.65 K | 0.0133
in ethanol, 261.85 K | 0.0165
in ethanol, 265.85 K | 0.0255
in ethanol, 268.55 K | 0.0344
in ethanol, 273.25 K | 0.0568
in ethanol, 275.85 K | 0.0726
in ethanol, 278.15 K | 0.094
in ethanol, 280.65 K | 0.123
in ethanol, 283.15 K | 0.17
in ethanol, 285.65 K | 0.238
in ethanol, 288.05 K | 0.329
in ethanol, 291.05 K | 0.481
in ethanol, 293.25 K | 0.625
in ethyl acetate, 252.15 K | 0.107
in ethyl acetate, 255.15 K | 0.114
in ethyl acetate, 257.85 K | 0.134
in ethyl acetate, 260.15 K | 0.146
in ethyl acetate, 263.65 K | 0.185
in ethyl acetate, 269.25 K | 0.246
in ethyl acetate, 273.65 K | 0.308
in ethyl acetate, 276.15 K | 0.342
in ethyl acetate, 278.45 K | 0.389
in ethyl acetate, 280.85 K | 0.433
in ethyl acetate, 283.25 K | 0.492
in ethyl acetate, 285.65 K | 0.558
in ethyl acetate, 288.05 K | 0.611
in ethyl acetate, 290.55 K | 0.668
in ethyl acetate, 293.25 K | 0.744
in isobutanol, 252.65 K | 0.0055
in isobutanol, 256.55 K | 0.0084
in isobutanol, 259.45 K | 0.0111
in isobutanol, 262.95 K | 0.013
in isobutanol, 265.65 K | 0.0155
in isobutanol, 269.35 K | 0.0205
in isobutanol, 273.55 K | 0.0388
in isobutanol, 275.95 K | 0.0587
in isobutanol, 278.15 K | 0.0813
in isobutanol, 280.65 K | 0.122
in isobutanol, 283.45 K | 0.194
in isobutanol, 285.75 K | 0.279
in isobutanol, 288.05 K | 0.355
in isobutanol, 290.95 K | 0.521
in isobutanol, 293.15 K | 0.643
in isopropanol, 252.05 K | 0.0065
in isopropanol, 256.25 K | 0.0081
in isopropanol, 258.95 K | 0.01
in isopropanol, 262.45 K | 0.0141
in isopropanol, 265.75 K | 0.0199
in isopropanol, 268.75 K | 0.0272
in isopropanol, 273.35 K | 0.0484
in isopropanol, 275.45 K | 0.0653
in isopropanol, 278.05 K | 0.0853
in isopropanol, 280.75 K | 0.137
in isopropanol, 283.15 K | 0.189
in isopropanol, 285.45 K | 0.26
in isopropanol, 287.95 K | 0.345
in isopropanol, 290.85 K | 0.5
in isopropanol, 293.15 K | 0.627
in methanol, 252.95 K | 0.0142
in methanol, 255.35 K | 0.0156
in methanol, 257.65 K | 0.0169
in methanol, 261.55 K | 0.0203
in methanol, 265.35 K | 0.0253
in methanol, 267.15 K | 0.0308
in methanol, 273.55 K | 0.0633
in methanol, 275.85 K | 0.0722
in methanol, 278.65 K | 0.0863
in methanol, 280.65 K | 0.122
in methanol, 283.05 K | 0.182
in methanol, 285.55 K | 0.248
in methanol, 288.15 K | 0.364
in methanol, 290.65 K | 0.482
in methanol, 293.15 K | 0.626
in n-butanol, 252.35 K | 0.0064
in n-butanol, 256.35 K | 0.0076
in n-butanol, 259.15 K | 0.0091
in n-butanol, 262.55 K | 0.0111
in n-butanol, 265.55 K | 0.0145
in n-butanol, 269.75 K | 0.0232
in n-butanol, 273.65 K | 0.0385
in n-butanol, 276.15 K | 0.0541
in n-butanol, 278.35 K | 0.0801
in n-butanol, 281.15 K | 0.123
in n-butanol, 283.55 K | 0.18
in n-butanol, 285.65 K | 0.251
in n-butanol, 288.15 K | 0.33
in n-butanol, 291.05 K | 0.486
in n-butanol, 293.15 K | 0.63
in n-propanol, 253.35 K | 0.0088
in n-propanol, 257.05 K | 0.0107
in n-propanol, 259.65 K | 0.0133
in n-propanol, 262.15 K | 0.0162
in n-propanol, 266.25 K | 0.0234
in n-propanol, 271.05 K | 0.0385
in n-propanol, 274.95 K | 0.0613
in n-propanol, 276.65 K | 0.0783
in n-propanol, 278.85 K | 0.098
in n-propanol, 281.15 K | 0.125
in n-propanol, 283.55 K | 0.173
in n-propanol, 286.15 K | 0.25
in n-propanol, 288.45 K | 0.352
in n-propanol, 291.05 K | 0.47
in n-propanol, 293.15 K | 0.611
in tetrachloromethane, 252.55 K | 0.109
in tetrachloromethane, 256.95 K | 0.125
in tetrachloromethane, 260.35 K | 0.144
in tetrachloromethane, 264.05 K | 0.182
in tetrachloromethane, 266.85 K | 0.214
in tetrachloromethane, 269.55 K | 0.242
in tetrachloromethane, 273.65 K | 0.314
in tetrachloromethane, 276.15 K | 0.349
in tetrachloromethane, 278.45 K | 0.393
in tetrachloromethane, 280.75 K | 0.445
in tetrachloromethane, 283.35 K | 0.506
in tetrachloromethane, 285.75 K | 0.564
in tetrachloromethane, 288.15 K | 0.632
in tetrachloromethane, 290.55 K | 0.696
in toluene, 253.45 K | 0.104
in toluene, 256.35 K | 0.119
in toluene, 259.55 K | 0.141
in toluene, 262.55 K | 0.161
in toluene, 264.85 K | 0.184
in toluene, 269.55 K | 0.237
in toluene, 273.65 K | 0.286
in toluene, 276.05 K | 0.326
in toluene, 278.25 K | 0.367
in toluene, 280.65 K | 0.41
in toluene, 283.15 K | 0.47
in toluene, 285.55 K | 0.545
in toluene, 288.05 K | 0.597
in toluene, 290.95 K | 0.67
in toluene, 293.15 K | 0.731
